What was measured:
[1] = target: T1, rat kidney medullary V2 receptors (Rattus norvegicus, UniProt Q00788); test: Binding Assay to Rat Kidney Medullary V2 Receptors; settings: for IC50: rat kidney medullary V2
T1 construct: Medullary tissues from rat kidneys are dissected out; from tissue; host or cells: rat kidney medulla membranes
Description: Medullary tissues from rat kidneys are dissected out, cut into small pieces and soaked in a […] sodium chloride solution containing 1.0 mM EDTA with many changes of the liquid phase, until the solution is clear of blood. The tissue is homogenized in a 0.25M sucrose solution containing 1.0 mM EDTA and 0.1 mM PMSF using a Potter-Elvehjem homogenizer with a teflon pestle. The homogenate is filtered through several layers (4 layers) of cheese cloth. The filtrate is rehomogenized using a dounce homogenizer, with a tight fitting pestle. The final homogenate is centrifuged at 1500×g for 15 min. The nuclear pellet is discarded and the supernatant fluid recentrifuged at 40,000×g for 30 min. The resulting pellet formed contains a dark inner part with the exterior, slightly pink. The pink outer part is suspended in a small amount of 50.0 mM Tris.HCl buffer, pH 7.4. The protein content is determined by the Lowry's method (Lowry et al., J. Biol. Chem., 1953). The membrane suspension is stored at -70° C., in 50.0 mM Tris.HCl, containing 0.2% inactivated BSA and 0.1 mM PMSF in aliquots of 1.0 ml containing 10.0 mg protein per ml of suspension until use in subsequent binding experiments.
For binding experiments, the following is added in μl volume to wells of a 96 well format of a microtiter plate: 100.0 μl of 100.0 mM Tris.HCl buffer containing 0.2% heat inactivated BSA, 10.0 mM MgCl2 and a mixture of protease inhibitors: leupeptin, 1.0 mg %; aprotinin, 1.0 mg %; 1,10-phenanthroline, 2.0 mg %; trypsin inhibitor, 10.0 mg % and 0.1 mM PMSF, 20.0 μl of [^3 H] Arginine^8, vasopressin (S.A. 75.0 Ci/mmole) at 0.8 nM and the reaction initiated by the addition of 80.0 μl of tissue membranes (200.0 μg tissue protein). The plates are left undisturbed on the bench top for 120 min to reach equilibrium. Non-specific binding is assessed in the presence of 1.0 μM of unlabeled ligand, added in 20 μl volume. For test compounds, these are solubilized in 50% dimethylsulfoxide (DMSO) and added in 20.0 μl volume to a final incubation volume of 200 μl. Upon completion of binding, the content of each well is filtered off, using a Brandel® cell Harvester (Gaithersburg, Md.). The radioactivity trapped on the filter disk by the ligand-receptor complex is assessed by liquid scintillation counting in a Packard LS Counter, with an efficiency of 65% for tritium.

[2] = target: vasopressin V1 receptor (rat liver plasma membranes) (Rattus norvegicus, UniProt P30560); test: Binding Assay to Rat Hepatic V1 Receptors; settings: for IC50: rat hepatic V1
vasopressin V1 receptor (rat liver plasma membranes), sequence (P30560 whole entry): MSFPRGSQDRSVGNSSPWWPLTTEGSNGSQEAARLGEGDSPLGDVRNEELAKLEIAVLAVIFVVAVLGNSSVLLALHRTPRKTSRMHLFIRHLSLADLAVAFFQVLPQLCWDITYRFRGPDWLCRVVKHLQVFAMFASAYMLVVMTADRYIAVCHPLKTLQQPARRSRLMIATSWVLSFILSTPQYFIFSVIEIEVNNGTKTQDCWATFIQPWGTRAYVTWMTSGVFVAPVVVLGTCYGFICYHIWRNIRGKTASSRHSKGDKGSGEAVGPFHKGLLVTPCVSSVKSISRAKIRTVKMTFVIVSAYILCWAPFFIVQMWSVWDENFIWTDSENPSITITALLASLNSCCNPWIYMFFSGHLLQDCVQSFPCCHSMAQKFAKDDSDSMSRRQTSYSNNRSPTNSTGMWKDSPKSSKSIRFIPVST
Description: Rat liver plasma membranes expressing the vasopressin V1 receptor subtypes are isolated by sucrose density gradient according to the method described by Lesko et al., (1973). These membranes are quickly suspended in 50.0 mM Tris.HCl buffer, pH 7.4, containing 0.2% bovine serum albumin (BSA) and 0.1 mM phenylmethylsulfonylfluoride (PMSF) and kept frozen at -70° C. until used in subsequent binding experiments. For binding experiments, the following is added to the wells of a ninety-six well format microtiter plate: 100 μl of 100.0 mM Tris.HCl buffer containing 10.0 mM MgCl2, 0.2% heat inactivated BSA and a mixture of protease inhibitors: leupeptin, 1.0 mg %; aprotinin, 1.0 mg %; 1,10-phenanthroline,2.0 mg %; trypsin inhibitor, 10.0 mg % and 0.1 mM PMSF, 20.0 μl of [phenylalanyl-3,4,5,-^3 H] vasopressin (S.A. 45.1 Ci/mmole) at 0.8 nM, and the reaction initiated by the addition of 80 μl of tissue membranes containing 20 μg of tissue protein. The plates are kept undisturbed on the bench top at room temperature for 120 min. to reach equilibrium. Non-specific samples are assayed in the presence of 0.1 μM of the unlabeled antagonist phenylalanylvasopressin, added in 20.0 μl volume.
For test compounds, these are solubilized in 50% dimethylsulfoxide (DMSO) and added in 20.0 μl volume to a final incubation volume of 200 μl. Upon completion of binding, the content of each well is filtered off, using a Brandel® cell Harvester (Gaithersburg, Md.). The radioactivity trapped on the filter disk by the ligand-receptor complex is assessed by liquid scintillation counting in a Packard LS Counter, with an efficiency of 65% for tritium.

vasopressin V1 = test: Vasopressin V1 Antagonist Activity in Conscious Rats (vasopressin vasopressor response); format: in vivo, rat (spontaneously hypertensive rats); settings: 10 mg/kg i.v.
Description: Conscious rats are restrained in a supine position with elastic tape. The area at the base of the tail is locally anesthetized by subcutaneous infiltration with 2% procaine (0.2 ml). Using aseptic technique the ventral caudal tail artery is isolated and a cannula made of PE 10 and 20 (heat-fused) tubing is passed into the lower abdominal aorta. The cannula is secured, heparinized (1000 i.u./cc), sealed and the wound closed with one or two stitches of Dexon 4-0. The caudal vein is also cannulated in the same manner for intravenous drug administration. The duration of the surgery is approximately 5 minutes. Additional local anesthesia (2% procaine or lidocaine) is provided as needed.
The animals are placed in plastic restraining cages in an upright position. The cannula is attached to a Statham P23Db pressure transducer and pulsatile blood pressure is recorded. […] The vasopressin injections are repeated 30, 60, 90, 120, 180, 240 and 300 min. later. Percentage of antagonism by the compound is calculated using the pre-drug vasopressin vasopressor response as 100%.

[3] = rat kidney, read-out: V2, % at concentration in brackets
[4] = 2 h, rat hepatic, read-out: V1, % at concentration in brackets

T1 sequence (Q00788 whole entry): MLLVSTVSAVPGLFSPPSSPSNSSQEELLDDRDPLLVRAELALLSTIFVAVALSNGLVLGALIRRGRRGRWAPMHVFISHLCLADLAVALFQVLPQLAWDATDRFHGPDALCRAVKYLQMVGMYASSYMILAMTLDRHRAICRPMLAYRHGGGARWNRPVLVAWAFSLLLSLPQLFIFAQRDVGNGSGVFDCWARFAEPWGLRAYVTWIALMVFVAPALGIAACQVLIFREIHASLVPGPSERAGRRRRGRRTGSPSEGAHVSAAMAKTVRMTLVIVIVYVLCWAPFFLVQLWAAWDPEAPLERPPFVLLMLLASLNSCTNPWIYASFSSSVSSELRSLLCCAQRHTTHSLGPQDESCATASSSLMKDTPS

Structure (SMILES)	IC50 [1]	IC50 [2]	other results
Cc1ccc(C)c(C(=O)Nc2ccc(C(=O)N3Cc4ccccc4Cc4ccccc43)cc2)c1 [Example 12, N-[4-[(6,11-Dihydro-5H-dibenz[b,e]azepin-5-yl)carbonyl]phenyl]-2,5-dimethylbenzamide]	180 nM	390 nM	–
O=C(Nc1ccc(C(=O)N2Cc3ccccc3Sc3ccccc32)cc1)c1ccc(Cl)cc1Cl [Example 449, N-[4-[(Dibenz[b,f][1,4]thiazepin-10(11H)-yl)-carbonyl]phenyl]-2 4-dichlorobenzamide]	250 nM	360 nM	MAX % Inhibition (vasopressin V1): 45%; Time of max % inhibition (vasopressin V1): 90 min
O=C(Nc1ccc(C(=O)N2Cc3ccccc3Cc3ccccc32)cc1)c1ccccc1 [Example 24, N-[4-[(6,11-Dihydro-5H-dibenz[b,e]azepin-5-yl)carbonyl]phenyl]benzamide]	410 nM	170 nM	–
COc1cc(Cl)ccc1C(=O)Nc1ccc(C(=O)N2Cc3ccccc3Cc3ccccc32)cc1 [Example 165, N-[4-[(6,11-Dihydro-5H-dibenz[b,e]azepin-5-yl)carbonyl]phenyl]-2-methoxy-4-chlorobenzamide]	370 nM	490 nM	–
Cc1ccccc1C(=O)Nc1ccc(C(=O)N2Cc3cc(Cl)ccc3Oc3ccccc32)cc1 [Example 4]	1700 nM	1500 nM	–
Cc1ccc(C(=O)Nc2ccc(C(=O)N3Cc4ccccc4Cc4ccccc43)cc2)c(C)c1 [Example 13, N-[4-[(6,11-Dihydro-5H-dibenz[b,e]azepin-5-yl)carbonyl]phenyl]2,4-dimethylbenzamide]	300 nM	340 nM	–
Cc1ccccc1C(=O)Nc1ccc(C(=O)N2Cc3cc(S(=O)(=O)N(C)C)ccc3Oc3ccccc32)cc1 [Example 23, N-[4-[[2-[(Dimethylamino)sulfonyl]dibenz[b,f][1,4]oxazepin-10(11H)-yl]carbonyl]phenyl]-2-methylbenzamide]	–	–	inhibition at 50 µM [1, 3]: 47%; inhibition at 50 µM [2, 4]: 19%
O=C(Nc1ccc(C(=O)N2Cc3ccccc3Cc3ccccc32)cc1)c1cc(Cl)ccc1Cl [Example 9, N-[4-[(6,11-Dihydro-5H-dibenz[b,e]azepin-5-yl)carbonyl]phenyl]-2,5-dichlorobenzamide]	280 nM	1100 nM	–
O=C(Nc1ccc(C(=O)N2Cc3ccccc3Cc3ccccc32)cc1)c1cccnc1 [Example 17, N-[4-[(6,11-Dihydro-5H-dibenz[b,e]azepin-5-yl)-carbonyl]phenyl]-3-pyridinecarboxamide]	–	–	inhibition at 50 µM [1, 3]: 52%; inhibition at 50 µM [2, 4]: 65%
Cc1occc1C(=O)Nc1ccc(C(=O)N2Cc3ccccc3Cc3ccccc32)cc1 [Example 119]	1100 nM	39 nM	–
Cc1ccccc1C(=O)Nc1ccc(C(=O)N2Cc3ccccc3CCc3ccccc32)cc1 [Example 6, N-[4-[(11,12-Dihydrodibenz[b,f]azocin-5-(6H)-yl)-carbonyl]phenyl]-2-methylbenzamide]	–	–	inhibition at 50 µM [1, 3]: 80%; inhibition at 50 µM [2, 4]: 60%
O=C(Nc1ccc(C(=O)N2Cc3ccccc3Cc3ccccc32)cc1)c1ccc(C(F)(F)F)cc1 [Example 20, N-[4-[(6,11-Dihydro-5H-dibenz[b,e]azepin-5-yl)carbonyl]phenyl]-4-(trifluoromethyl)benzamide]	–	–	inhibition at 10 µM ([1]; 10 μM, rat kidney, read-out: V2, % at concentration in brackets): 48%; inhibition at 10 µM ([2]; 2 h, 10 μM, rat hepatic, read-out: V1, % at concentration in brackets): 17%
O=C(Nc1ccc(C(=O)N2Cc3ccccc3Cc3ccccc32)cc1)c1cccc(C(F)(F)F)c1 [Example 19, N-[4-[(6,11-Dihydro-5H-dibenz[b,e]azepine-5-yl)carbonyl]phenyl]-3-(trifluoromethyl)benzamide]	1200 nM	1300 nM	–
O=C(Nc1ccc(C(=O)N2Cc3ccccc3-c3ccccc32)cc1)c1ccc(Cl)c(Cl)c1 [Example 8, 3.4-Dichloro-N-[4-[(5(6H)-phenanthridinyl)carbonyl]phenyl]benzamide]	1500 nM	2800 nM	–

Further lines, with some results ahead:

IC50 [1]	IC50 [2]	Structure (SMILES)	other results
77 nM	630 nM	O=C(Nc1ccc(C(=O)N2Cc3ccccc3-c3ccccc32)cc1)c1c(Cl)cccc1Cl [Example 7]	–
440 nM	280 nM	O=C(Nc1ccc(C(=O)N2Cc3ccccc3Cc3ccccc32)cc1)c1ccc(F)cc1F [Example 21, N-[4-[(6,11-Dihydro-5H-dibenz[b,e]azepin-5-yl)carbonyl]phenyl]-2,4-difluorobenzamide]	–
520 nM	84 nM	Cc1ccsc1C(=O)Nc1ccc(C(=O)N2Cc3ccccc3Cc3ccccc32)cc1 [Example 18, N-[4-[(6,11-Dihydro-5H-dibenz[b,e]azepin-5-yl)carbonyl]phenyl]-3-methyl-2-thiophenecarboxamide]	–
420 nM	170 nM	Cc1ccsc1C(=O)Nc1ccc(C(=O)N2Cc3ccccc3-c3ccccc32)cc1 [Example 3, 3-Methyl-N-[4-[(5(6H)-phenanthridinyl)carbonyl]-phenyl]-2-thiophenecarboxamide]	–
245 nM	83 nM	O=C(Nc1ccc(C(=O)N2Cc3ccccc3Cc3ccccc32)cc1)c1ccccc1C(F)(F)F [Example 166, N-[4-[(6,11-Dihydro-5H-dibenz(b,e]azepin-5-yl)carbonyl]phenyl]-2-trifluoromethylbenzamide]	–
560 nM	52 nM	O=C(Nc1ccc(C(=O)N2Cc3ccccc3Cc3ccccc32)cc1)c1ccccc1OC(F)(F)F [Example 25, N-[4-[(6,11-Dihydro-5H-dibenz[b,e]azepin-5-yl)carbonyl]phenyl]-2-(trifluoromethoxy)benzamide]	–
